These results are taken from patent US6465522B1, “Anthraquinone anticancer drugs” (priority 1998, dated 2002).

Holding throughout (type): cell-based
One test relates to A2780. The test can be described thus: MTT growth inhibition, A2780 parental ovarian cancer cell line. The following applies: MTT assay, 24 hour drug exposure, mean of triplicate, read-out: Growth Inhibition of Ovarian Cancer Cell Lines (IC50/nM) A2780. As for the experimental part:
(§1) The cells used for the anticancer activity measurements were the parental ovarian cell line designated as A2780, the doxorubicin-resistant variant designated as 2780AD, and the cisplatin-resistant variant designated as 2780CP (also known as CP70). Drug sensitivity in these cell lines was measured by the standard MTT assay (Carmichael et al., 1987, Cancer Research, 47: 936) with a 24 hour drug exposure time. The values obtained are mean values of triplicate measurements.
Background: Formazan colour is commonly taken as a measure of viable cells.

The test system of the next test is 2780AD. The test can be described thus: MTT growth inhibition, 2780AD adriamycin (doxorubicin) resistant ovarian cancer cell line. As for the experimental part:
as §1

The test system of a further test is 2780CP. The test can be described thus: MTT growth inhibition, 2780CP cisplatin resistant ovarian cancer cell line. As to the method:
as §1

The next test deals with SKOV-3. The test can be described thus: Antitumour activity in drug resistant ovarian cancer cell line SKOV-3. The following applies: SKOV-3 drug resistant ovarian cancer cell line.
Another test has as its system CH1cisR. The test can be described thus: Antitumour activity in drug resistant ovarian cancer cell line CH1cisR.
[1] abbreviates: 2780AD adriamycin resistant variant, MTT assay, 24 hour drug exposure, mean of triplicate, read-out: Growth Inhibition of Ovarian Cancer Cell Lines (IC50/nM) 2780AD.
The mark [2] stands for this setting: 2780CP cisplatin resistant variant, MTT assay, 24 hour drug exposure, mean of triplicate, read-out: Growth Inhibition of Ovarian Cancer Cell Lines (IC50/nM) 2780CP.

Like-named read-outs stand apart in the source and are kept apart here.

Turning to `COc1cccc2c1C(=O)c1c(O)c3c(c(O)c1C2=O)C[C@@](O)(C(=O)CO)C[C@@H]3O[C@H]1C[C@H](N)[C@H](O)[C@H](C)O1` [Adriamycin, adriamycin], the IC50 with A2780 (Homo sapiens) is 5 ± 1.1 nM; with 2780AD (setting [1]), 4860 ± 510 nM; with 2780CP (setting [2]), 13.3 ± 0.9 nM.
On to `CN(C)CCNc1ccc(NCCN(CCCl)CCCl)c2c1C(=O)c1c(O)ccc(O)c1C2=O` [Compound (2)], for which the IC50 was 490 nM in the test with SKOV-3; 4 ± 0.6 nM in the test with A2780; 19 nM with CH1cisR; 16 nM with 2780AD (2780AD, read-out: IC50 2780AD); 11.8 ± 1.4 nM in the test on 2780CP (setting [2]); 12 nM with 2780CP (2780CP, read-out: IC50 2780CP).
Turning to `N.N.[Cl][Pt][Cl]` [Cisplatin, cisplatin], the IC50 with A2780 came to 340 ± 60 nM; in the test with 2780AD (setting [1]), 3020 ± 220 nM; with 2780CP (setting [2]), 2620 ± 730 nM.
